Experimental data: the NIST ThermoML archive (doi:10.1021/je049609w)

Tests used:
[1] = xn = mol fraction of the nth substance listed; conditions: 101 kPa, Liquid
[2] = refractive index (Na D-line) (dimensionless); xn = mol fraction of the nth substance listed; conditions: 101 kPa, Liquid

Clc1ccccc1Cl [1,2-dichlorobenzene] + C1COCCO1
Conditions	mass density, 298.15 K [kg/m3]	mass density, 303.15 K [kg/m3]	mass density, 308.15 K [kg/m3]	refractive index, 298.15 K	refractive index, 303.15 K	refractive index, 308.15 K	speed of sound, 298.15 K [m/s]	viscosity, 298.15 K [mPa·s]	viscosity, 303.15 K [mPa·s]	viscosity, 308.15 K [mPa·s]
[1], x2 = 0	1300.9	1295.4	1289.7	–	–	–	1280	1.324	1.214	1.105
[1], x2 = 0.1025	1278.5	1272.9	1267.3	–	–	–	1287	1.311	1.203	1.095
[1], x2 = 0.203	1255.8	1250.1	1244.5	–	–	–	1293	1.298	1.191	1.085
[1], x2 = 0.2983	1232.9	1227.3	1221.6	–	–	–	1299	1.285	1.181	1.076
[1], x2 = 0.3965	1208.5	1202.8	1197.1	–	–	–	1305	1.273	1.169	1.066
[1], x2 = 0.4955	1182.5	1176.9	1171.2	–	–	–	1312	1.26	1.158	1.056
[1], x2 = 0.596	1154.9	1149.3	1143.6	–	–	–	1319	1.247	1.147	1.047
[1], x2 = 0.6976	1125.6	1120	1114.3	–	–	–	1325	1.234	1.135	1.037
[1], x2 = 0.7992	1094.7	1089.1	1083.4	–	–	–	1332	1.221	1.124	1.027
[1], x2 = 0.8971	1063.3	1057.7	1051.9	–	–	–	1338	1.209	1.113	1.018
[2], x2 = 0	–	–	–	1.5499	1.5476	1.545	–	–	–	–
[2], x2 = 0.1025	–	–	–	1.5374	1.5333	1.5325	–	–	–	–
[2], x2 = 0.203	–	–	–	1.5269	1.5246	1.5224	–	–	–	–
[2], x2 = 0.2983	–	–	–	1.5171	1.5148	1.5125	–	–	–	–
[2], x2 = 0.3965	–	–	–	1.5048	1.5023	1.4998	–	–	–	–
[2], x2 = 0.4955	–	–	–	1.4924	1.4902	1.4879	–	–	–	–
[2], x2 = 0.596	–	–	–	1.4799	1.4768	1.4738	–	–	–	–
[2], x2 = 0.6976	–	–	–	1.4652	1.4628	1.4604	–	–	–	–
[2], x2 = 0.7992	–	–	–	1.4513	1.4484	1.4455	–	–	–	–
[2], x2 = 0.8971	–	–	–	1.4365	1.4337	1.4308	–	–	–	–

C1COCCO1 [1,4-dioxane] + CC(=O)N(C)C
x1 = 1
Conditions	mass density, 298.15 K [kg/m3]	mass density, 303.15 K [kg/m3]	mass density, 308.15 K [kg/m3]	refractive index, 298.15 K	refractive index, 303.15 K	refractive index, 308.15 K	speed of sound, 298.15 K [m/s]	viscosity, 298.15 K [mPa·s]	viscosity, 303.15 K [mPa·s]	viscosity, 308.15 K [mPa·s]
[1]	1028.6	1022.9	1017.2	–	–	–	1345	1.196	1.095	1.008
[2]	–	–	–	1.4203	1.4164	1.4145	–	–	–	–

C1COCCO1 [1,4-dioxane] + CCCCO
Conditions	mass density, 298.15 K [kg/m3]	mass density, 303.15 K [kg/m3]	mass density, 308.15 K [kg/m3]	refractive index, 298.15 K	refractive index, 303.15 K	refractive index, 308.15 K	speed of sound, 298.15 K [m/s]	viscosity, 298.15 K [mPa·s]	viscosity, 303.15 K [mPa·s]	viscosity, 308.15 K [mPa·s]
[1], x1 = 0.1014	826.1	822.1	818.1	–	–	–	1249	2.15	1.926	1.703
[1], x1 = 0.2015	846.7	842.4	838.1	–	–	–	1260	1.757	1.602	1.447
[1], x1 = 0.2982	866.9	862.4	858	–	–	–	1270	1.489	1.347	1.204
[1], x1 = 0.3995	888.7	884	879.5	–	–	–	1281	1.327	1.196	1.066
[1], x1 = 0.4945	909.6	904.8	900.1	–	–	–	1291	1.241	1.13	1.03
[1], x1 = 0.5993	933.5	928.4	923.4	–	–	–	1301	1.177	1.081	0.985
[1], x1 = 0.7023	957.5	952.3	947.1	–	–	–	1310	1.153	1.063	0.972
[1], x1 = 0.802	981.1	975.8	970.4	–	–	–	1320	1.162	1.07	0.979
[1], x1 = 0.9017	1004.9	999.5	994	–	–	–	1332	1.17	1.078	0.986
[1], x1 = 1	1028.6	1022.9	1017.2	–	–	–	1345	1.196	1.095	1.008
[2], x1 = 0.1014	–	–	–	1.3999	1.3976	1.3952	–	–	–	–
[2], x1 = 0.2015	–	–	–	1.4016	1.3992	1.3968	–	–	–	–
[2], x1 = 0.2982	–	–	–	1.4032	1.4008	1.3984	–	–	–	–
[2], x1 = 0.3995	–	–	–	1.4052	1.4028	1.4003	–	–	–	–
[2], x1 = 0.4945	–	–	–	1.4071	1.4046	1.4022	–	–	–	–
[2], x1 = 0.5993	–	–	–	1.4095	1.4069	1.4044	–	–	–	–
[2], x1 = 0.7023	–	–	–	1.4119	1.4094	1.4068	–	–	–	–
[2], x1 = 0.802	–	–	–	1.4145	1.4118	1.4093	–	–	–	–
[2], x1 = 0.9017	–	–	–	1.4172	1.4145	1.4118	–	–	–	–
[2], x1 = 1	–	–	–	1.4203	1.4164	1.4145	–	–	–	–

C1COCCO1 [1,4-dioxane] + CCOC(=O)CC(=O)OCC
x1 = 1
Conditions	mass density, 298.15 K [kg/m3]	mass density, 303.15 K [kg/m3]	mass density, 308.15 K [kg/m3]	refractive index, 298.15 K	refractive index, 303.15 K	refractive index, 308.15 K	speed of sound, 298.15 K [m/s]	viscosity, 298.15 K [mPa·s]	viscosity, 303.15 K [mPa·s]	viscosity, 308.15 K [mPa·s]
[1]	1028.6	1022.9	1017.2	–	–	–	1345	1.196	1.095	1.008
[2]	–	–	–	1.4203	1.4164	1.4145	–	–	–	–
